Test results taken from patent US20200368271A1, “METHOD AND APPARATUS FOR ADMINISTERING GASES INCLUDING NITRIC OXIDE” (priority 2015, published 2020).

How the values were obtained:
[1] = test system: rats exposed to high O2; details: cited from earlier work
[2] = test system: chrondrocytes; details: Yokota 2015; cited from earlier work
[3] = test system: rat brain ischemia-reperfusion (I/R); details: acute rat model, inhaled; Ohsawa 2007; cited from earlier work
[4] = test system: mice with intratracheal administration of LPS; experiment: LPS-induced lung injury in mice (intratracheal LPS); assay type: in vivo; details: for lung injury after intratracheal LPS: 2% H2 and/or 20 ppm NO for 3 hours starting at 5 minutes or 3 hours after LPS administration; for pulmonary inflammation and cell apoptosis: H2 and/or NO treatment
From the text: Applicants have discovered that NO's effect as an antioxidant may be enhanced by eliminating highly reactive by-products of NO inhalation such as peroxynitrite, by adding H2 to inhaled NO gas.

[5] = test system: neonatal piglets; details: short-term exposure, Ekekezie 2000; cited from earlier work
[6] = test system: HIF; details: cited from earlier work

SMILES | lung injury after intratracheal LPS [4] | pulmonary inflammation and cell apoptosis [4] | lung collagen accumulation [5] | also measured
COC(=O)[C@@H](N)CCCN=C(N)N[N+](=O)[O-] [Nω-nitro-1-arginine methyl ester] |  |  |  | survival on exposure to >95% O2 with endogenous NO production blocked ([1]; neonatal rats, compared with control rats): significantly fewer survived
[HH] [H2, hydrogen] | significantly improved | down-regulated |  | effect on cells under oxidant injury [2]: cytoprotective effects; brain injury associated with focal ischemia-reperfusion [3]: markedly suppressed
O=O [O2, oxygen] |  |  | increases lung collagen accumulation | 
[N]=O [NO, nitric oxide] | significantly improved | down-regulated | increases lung collagen accumulation | effect on HIF at high doses ([6]; high doses and after 30 minutes): inhibitory; effect on HIF at low dose ([6]; low dose, for 30 minutes, during hypoxia): stimulates; survival in high O2 exposure ([1]; rats, inhaled NO): increase survival
